Where a name gives a salt, the structure may show the parent alone.
What follows are compounds tested on Human mast cells (CHMC) (assay: LD Tryptase release assay in CHMC (mast cell activation induced by FcγR cross-linking)). Details: Homo sapiens, Mast cell, anti-IgG stimulation, activity of tryptase released upon degranulation.
Type: cell-based
In short: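 Mast cells derived from CD38-negative progenitors were preincubated 1 h at 37 °C with compound in HEPES-buffered saline (pH 7.4, 0.1% BSA, compound diluted in buffer with 2% MeOH/1% DMSO). Cells were then stimulated 60 min with anti-human IgG (final 1 μg/mL). Released tryptase was measured on Z-Ala-Lys-Arg-AMC (30 min, room temperature, 355/460 nm) to give the IC50.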
With COc1cc(Nc2ncc(F)c(Nc3ccc4c(n3)NC(=O)C(C)(C)O4)n2)ccc1N1CCOCC1 [Compound 27, N4-(2,2-dimethyl-3,4-dihydro-3-oxo-2H-pyrido[3,2-b][1,4]oxazin-6-yl)-5-fluoro-N2-[3-methoxy-4-morpholinophenyl]-2,4-pyrimidinediamine] the IC50 was less than 100 nM. Compound CC1(C)Oc2ccc(Nc3nc(Nc4ccc(N5C[C@@H]6C[C@H]5CO6)cc4)ncc3F)nc2NC1=O [Compound 38, N4-(2,2-dimethyl-3,4-dihydro-3-oxo-2H-pyrido[3,2-b][1,4]oxazin-6-yl)-5-fluoro-N2-[4-((1S,4S)-5-oxa-2-aza-bicyclo[2.2.1]heptan-2-yl)phenyl]-2,4-pyrimidinediamine] has an IC50 of less than 100 nM. Compound COc1cc(Nc2ncc(F)c(Nc3ccc4c(n3)NC(=O)CO4)n2)ccc1C1CCOCC1 [Compound 49, N4-(3,4-dihydro-3-oxo-2H-pyrido[3,2-b][1,4]oxazin-6-yl)-5-fluoro-N2-[-3-methoxy-4-tetrahydropyranophenyl]-2,4-pyrimidinediamine] has an IC50 of less than 100 nM. Work on C[C@@H]1CN(c2ccc(Nc3ncc(F)c(Nc4ccc5c(n4)NC(=O)CO5)n3)cc2)CCO1 [Compound 117, N4-(3,4-dihydro-3-oxo-2H-pyrido[3,2-b][1,4]oxazin-6-yl)-5-fluoro-N2-[4-((2R)-2-methylmorpholino)phenyl]-2,4-pyrimidinediamine] yielded an IC50 of less than 100 nM. CCOC[C@@H]1CN(c2ccc(Nc3ncc(F)c(Nc4ccc5c(n4)NC(=O)C(C)(C)O5)n3)cn2)CCO1 [Compound 101, N4-(2,2-dimethyl-3,4-dihydro-3-oxo-2H-pyrido[3,2-b][1,4]oxazin-6-yl)-N2-[6-(((2S)-2-ethoxymethyl)morpholino)pyridin-3-yl]-5-fluoro-2,4-pyrimidinediamine] showed an IC50 of 100 to 500 nM. With O=C1COc2ccc(Nc3nc(Nc4ccc5c(c4)OCC4COCCN54)ncc3F)nc2N1 (stereo not shown) [Compound 84, N4-(3,4-dihydro-3-oxo-2H-pyrido[3,2-b][1,4]oxazin-6-yl)-5-fluoro-N2-[1,2,4a,5-tetrahydro-4H-[1,4]oxazino[3,4-c][1,4]benzoxazin-8-yl]-2,4-pyrimidinediamine] the IC50 was 100 to 500 nM. For C[C@H]1COCCN1c1ccc(Nc2ncc(F)c(Nc3ccc4c(n3)NC(=O)C(C)(C)O4)n2)cn1 [Compound 138, N4-(2,2-dimethyl-3,4-dihydro-3-oxo-2H-pyrido[3,2-b][1,4]oxazin-6-yl)-5-fluoro-N2-[6-((3S)-3-methylmorpholino)pyridin-3-yl]-2,4-pyrimidinediamine], the IC50 was 100 to 500 nM. In the case of CCO[C@H]1CCN(c2ccc(Nc3ncc(F)c(Nc4ccc5c(n4)NC(=O)C(C)(C)O5)n3)cn2)C1 [Compound 57, N4-(2,2-dimethyl-3,4-dihydro-3-oxo-2H-pyrido[3,2-b][1,4]oxazin-6-yl)-5-fluoro-N2-1-2,4-pyrimidinediamine], the IC50 is reported as 100 to 500 nM. With C[C@@H]1CN(c2ccc(Nc3ncc(F)c(Nc4ccc5c(n4)NC(=O)CO5)n3)cn2)CCO1 [Compound 6, N4-(3,4-dihydro-3-oxo-2H-pyrido[3,2-b][1,4]oxazin-6-yl)-5-fluoro-N2-[6-((2R)-2-methylmorpholino)pyridin-3-yl]-2,4-pyrimidinediamine] the IC50 was less than 100 nM. Compound CC1(C)Oc2ccc(Nc3nc(Nc4ccc(N5CCC(F)(F)CC5)c(F)c4)ncc3F)nc2NC1=O [Compound 30, N4-(2,2-dimethyl-3,4-dihydro-3-oxo-2H-pyrido[3,2-b][1,4]oxazin-6-yl)-5-fluoro-N2-[3-fluoro-4-(4,4-difluoro-1-piperidinyl)phenyl]-2,4-pyrimidinediamine] has an IC50 of 1000 to 100000 nM. With C[C@@H]1CN(c2ccc(Nc3ncc(F)c(Nc4ccc5c(n4)NC(=O)C(C)(C)O5)n3)cn2)CCO1 [Compound 7, N4-(2,2-dimethyl-3,4-dihydro-3-oxo-2H-pyrido[3,2-b][1,4]oxazin-6-yl)-5-fluoro-N2-1-2,4-pyrimidinediamine] the IC50 was 100 to 500 nM. Cc1cc(Nc2ncc(F)c(Nc3ccc4c(n3)NC(=O)CO4)n2)cnc1N1CCOC(C)(C)C1 [Compound 12, N4-(3,4-dihydro-3-oxo-2H-pyrido[3,2-b][1,4]oxazin-6-yl)-5-fluoro-N2-[5-methyl-6-(2,2-dimethylmorpholino)pyridin-3-yl]-2,4-pyrimidinediamine] showed an IC50 of less than 100 nM. CCN[C@@H]1CCN(c2ccc(Nc3ncc(F)c(Nc4ccc5c(n4)NC(=O)C(C)(C)O5)n3)cn2)C1 [Compound 68, N4-(2,2-dimethyl-3,4-dihydro-3-oxo-2H-pyrido[3,2-b][1,4]oxazin-6-yl)-5-fluoro-N2-[6-((3R)-3-(ethylamino)pyyriolidin-1-yl)pyridin-3-yl]-2,4-pyrimidinediamine] gave an IC50 of 100 to 500 nM. For CC1(C)Oc2ccc(Nc3nc(Nc4ccc(N5CCC6(CC5)COC6)cc4)ncc3F)nc2NC1=O [Compound 158, N4-(2,2-dimethyl-3,4-dihydro-3-oxo-2H-pyrido[3,2-b][1,4]oxazin-6-yl)-5-fluoro-N2-[4-(2-oxa-7-azaspiro[3.5]nonan-7-yl)phenyl]-2,4-pyrimidinediamine], the IC50 was 100 to 500 nM. Cc1cc(Nc2ncc(F)c(Nc3ccc4c(n3)NC(=O)C(C)(C)O4)n2)ccc1N1CCC2(CCOC2)CC1 [Compound 159, N4-(2,2-dimethyl-3,4-dihydro-3-oxo-2H-pyrido[3,2-b][1,4]oxazin-6-yl)-5-fluoro-N2-[3-methyl-4-(2-oxa-8-azaspiro[4.5]decan-8-yl)phenyl]-2,4-pyrimidinediamine] gave an IC50 of 500 to 1000 nM. Cc1cc(Nc2ncc(F)c(Nc3ccc4c(n3)NC(=O)C(C)(C)O4)n2)ccc1N1C[C@@H]2C[C@H]1CO2 [Compound 24, N4-(2,2-dimethyl-3,4-dihydro-3-oxo-2H-pyrido[3,2-b][1,4]oxazin-6-yl)-5-fluoro-N2-[3-methyl-4-((1S,4S)-5-oxa-2-aza-bicyclo[2.2.1]heptan-2-yl)phenyl]-2,4-pyrimidinediamine] was tested, and the IC50 was less than 100 nM. CC1(C)CN(c2ccc(Nc3ncc(F)c(Nc4ccc5c(n4)NC(=O)C4(CCC4)O5)n3)cc2)CCO1 [Compound 124, N2-[4-(2,2-Dimethylmorpholino)phenyl]-5-fluoro-N4-(3′-oxo-3′,4′-dihydrospiro[cyclobutane-1,2′-pyrido[3,2-b][1,4]oxazine]-6-yl)-2,4-pyrimidinediamine] gave an IC50 of 1000 to 100000 nM. In the case of CC(C)[C@H]1COC(=O)N1c1ccc(Nc2ncc(F)c(Nc3ccc4c(n3)NC(=O)C(C)(C)O4)n2)cn1 [Compound 74, N4-(2,2-dimethyl-3,4-dihydro-3-oxo-2H-pyrido[3,2-b][1,4]oxazin-6-yl)-5-fluoro-N2-[6-((4S)-4-isopropyl-2-oxooxazolidin-3-yl)pyridin-3-yl]-2,4-pyrimidinediamine], the IC50 is reported as 1000 to 100000 nM. Compound CC1(C)Oc2ccc(Nc3nc(Nc4ccc(N5CCC(C(N)=O)C5)nc4)ncc3F)nc2NC1=O (stereo not shown) [Compound 70, N4-(2,2-dimethyl-3,4-dihydro-3-oxo-2H-pyrido[3,2-b][1,4]oxazin-6-yl)-5-fluoro-N2-[6-(3-(aminocarbonyl)pyrrolidin-1-yl)pyridin-3-yl]-2,4-pyrimidinediamine] has an IC50 of 500 to 1000 nM. Work on C[C@H]1CN(c2ccc(Nc3ncc(F)c(Nc4ccc5c(n4)NC(=O)C(C)(C)O5)n3)cn2)[C@@H](C)CO1 (racemic) [Compound 105, rac-N4-(2,2-dimethyl-3,4-dihydro-3-oxo-2H-pyrido[3,2-b][1,4]oxazin-6-yl)-5-N2-[6-(2,5-dimethylmorpholino)pyridin-3-yl]-5-fluoro-2,4-pyrimidinediamine] yielded an IC50 of 100 to 500 nM.

Same assay, conditions: anti-IgG stimulation, activity of tryptase released upon degranulation
Work on CC1(C)Oc2ccc(Nc3nc(Nc4ccc(N5CCOCC5)nc4)ncc3F)nc2NC1=O [Compound 142, N4-(2,2-dimethyl-3,4-dihydro-3-oxo-2H-pyrido[3,2-b][1,4]oxazin-6-yl)-5-fluoro-N2-[6-morpholinopyridin-3-yl]-2,4-pyrimidinediamine ethanesulfonic acid salt] yielded an IC50 of 100 to 500 nM. In the case of CC1(C)Oc2ccc(Nc3nc(Nc4ccc(N5CCOCC5)nc4)ncc3F)nc2NC1=O [Compound 140, N4-(2,2-dimethyl-3,4-dihydro-3-oxo-2H-pyrido[3,2-b][1,4]oxazin-6-yl)-5-fluoro-N2-[6-morpholinopyridin-3-yl]-2,4-pyrimidinediamine hydrochloric acid salt], the IC50 is reported as 500 to 1000 nM.

Source: US8618095B2 (Rigel Pharmaceuticals, Inc., priority 2010, dated 2013)
